Laboratory results published in patent US11135186B2, “Regulators of the endoplasmic reticulum proteostasis network” (The Scripps Research Institute, priority 2015, dated 2021).

Assays:
[1] = tested on: ERSE-FLuc reporter (ATF6 arm of the UPR); assay: ERSE-FLuc reporter, 96-well, HEK293T-Rex cells (SAR and S1P inhibition); format: cell-based; conditions: for ERSE reporter activity relative to 147: HEK293T-Rex, 10 μM
Procedure: HEK293T-Rex cells incorporating the ERSE-FLuc reporter and HEK293^DAX cells were plated approximately 20,000 cells/well in flat-bottomed, black 96-well assay plates (Costar, Corning, Inc.) overnight prior to compound administration. Cells were treated with compounds as described for 12-18 h then the plates were equilibrated to room temperature and 50 μL of SteadyLite (PerkinElmer) was added to each well. Luminescence activity was measured in a Safire II microplate reader with a 1000 ms integration time.

[2] = tested on: ERSE-FLuc reporter (ATF6 arm of the UPR); assay: ERSE-FLuc reporter, 1536-well confirmation screen in HEK293T-Rex cells; format: cell-based; conditions: % Tg (500 nM) activation, triplicate confirmation screen at 6.8 μM, 18 h
Text: We employed a transcriptional reporter that quantifies activation of the ATF6 arm of the UPR in HEK293T-Rex cells. This reporter contains a fragment of the UPR-inducible BiP promoter, including three ER stress-responsive elements (ERSEs), driving expression of firefly luciferase (ERSE-FLuc; FIG. 1a)^34. We previously employed this reporter for a small-scale screen using the 1280 member compound Library of Pharmacologic Active Compounds (LoPAC) to find small molecules that activate the UPR^8. […] Optimization and miniaturization of this assay to 1536-well format was performed at the Scripps Research Institute Molecule Screening Center (SRIMSC).
(§1) HEK293T-Rex cells incorporating either the ERSE-FLuc or XBP1s-RLuc reporters were collected by trypsinization and resuspended at a density of 500,000 cells per mL. The assay was started by dispensing 5 μL of cell suspension into each well of white, solid-bottom 1536-well plates using a flying reagent dispenser (FRD) and placed into an online incubator 3 h. Cells were then treated with 34 nL/well of either test compounds to give final concentrations of 6.8 μM, DMSO (Low control, final concentration 0.68%, 0% activation) or […] of Delta-7 thapsigargin (High control, final concentration 500 nM, 100% activation). Plates were incubated for 18 h at 37° C., removed from the incubator and equilibrated to room temperature for 10 min. Luciferase activity was detected by addition of 5 μL of ONE-Glo reagent (Promega) to each well. After a 10 min incubation time, light emission was measured with the ViewLux reader (PerkinElmer). The percent activation of each test compound was calculated as follows: % Activation=100*(Test Compound−Median Low Control)/(Median High Control ˜Median Low Control).

[3] = tested on: XBP1-RLuc reporter (IRE1/XBP1s arm of the UPR); assay: XBP1-RLuc splicing reporter, 1536-well screen in HEK293T-Rex cells; format: cell-based; conditions: % Tg (500 nM) activation, triplicate confirmation screen at 6.8 μM, 18 h
Text: To evaluate the selectivity of our screening hits for ATF6, we employed an alternative luciferase reporter to measure activation of the IRE1/XBP1s arm of the UPR. This reporter contains Renilla luciferase (RLuc) expressed out of frame downstream of the XBP1 splice site, preventing RLuc translation in the absence of stress (FIG. 2b)^36,37. In response to IRE1 activation, the 26-nt XBP1 intron is removed, producing a frame shift that allows for RLuc translation and activity. Robust dose-dependent activation of the XBP1-RLuc reporter upon addition of the ER stressors Tg and Tm was confirmed in HEK293T-Rex cells stably expressing the XBP1-RLuc reporter, producing a Z′ score of 0.75 for Tg.
as §1

[4] = tested on: BiP expression in ALMC-2 cells; assay: BiP qPCR in ALMC-2 cells; format: cell-based, human; conditions: 10 μM, 6 h
Procedure: Cells were treated as described at 37° C., washed with Dulbecco's phosphate-buffered saline (Gibco), and then RNA was extracted using the RNeasy Mini Kit (Qiagen). qPCR reactions were performed on cDNA prepared from 500 ng of total cellular RNA using the QuantiTect Reverse Transcription Kit (Qiagen). The FastStart Universal SYBR Green Master Mix (Roche), cDNA, and appropriate human primers^4 or mouse primers (BiP; […] (SEQ ID NO: 5) and […] (SEQ ID NO: 6) purchased from Integrated DNA Technologies were used for amplifications (45 cycles of 1 min at 95° C., 10 s at 95° C., 30 sec at 60° C.) in an ABI 7900HT Fast Real Time PCR machine. Primer integrity was assessed by a thermal melt to confirm homogeneity and the absence of primer dimers. Transcripts were normalized to the housekeeping gene Rplp2 and all measurements were performed in triplicate. Data were analyzed using the RQ Manager and DataAssist 2.0 softwares (ABI).

^FTTTR^WT = assay: [35S] metabolic labeling, secretion of flag-tagged TTR^WT from HepG2^ATF6 cells; format: cell-based; conditions: 15 h pretreatment, 10 μM compound or 1 μM Tg, 4 h chase
Procedure: (§2) HepG2 cells or HEK293T cells plated on poly-D-lysine coated plates were metabolically labeled in DMEM-Cys/-Met (CellGro) supplemented with glutamine, penicillin/streptomycin, dialyzed fetal bovine serum, and EasyTag EXPRESS^35S Protein Labeling Mix (Perkin Elmer) for 30 min. Cells were washed twice with complete media and incubated in prewarmed DMEM for the indicated times. Media or lysates were harvested at the indicated times. Lysates were prepared in RIPA buffer with fresh protease inhibitor cocktail (Roche). FLAG tagged TTR variants or ALLC were immunopurified using M1 anti-FLAG agarose beads (Sigma-Aldrich) and washed three times with RIPA buffer. The immunoisolates were then eluted by boiling in Laemmli buffer and separated on SDS-PAGE. For total secreted media, 15 uL aliquots from media incubated for 4 hrs on pulsed cells were run on a SDS-PAGE. The gels were then dried, exposed to phosphorimager plates (GE Healthcare), and imaged with a Typhoon imager. Band intensities were quantified by densitometry in ImageQuant. Fraction secreted was calculated using the equation: fraction secreted=[extracellular [^35S]-LC signal at t=t/(extracellular [^35S]-LC signal at t=0+intracellular [^35S]-LC signal at t=0)]. Fraction remaining was calculated using the equation: [(extracellular [^35S]-LC signal at t=t+intracellular [^35S]-LC signal at t=t)/(extracellular [^35S]-LC signal at t=0+ intracellular [^35S]-LC signal at t=0)].

^FTTTR^A25T = assay: [35S] metabolic labeling, secretion of flag-tagged TTR^A25T from HepG2^ATF6 cells; format: cell-based; conditions: 15 h pretreatment, 10 μM compound or 1 μM Tg, 4 h chase
Procedure: as §2

HEK293T-Rex cells = assay: mRNA-Seq transcriptional profiling and geneset analysis in HEK293T-Rex cells; format: cell-based, human; conditions: 6 h, compounds 10 μM, Tg 1 μM
Procedure: HEK293T-Rex and HEK293^DAX cells in 12-well plates were treated for 6 h with vehicle, 1 μM Tg, 10 μM TMP (in HEK293^DAX), or 10 μM 132, 147 or 263 in biological triplicate at 37° C. Cells were harvested, and RNA was extracted using the RNeasy Mini Kit (Qiagen). Total RNA was quantified using NanoDrop (ND-1000). Samples were run on the Illuina HiSeq system.
Single end, 100 bp-long reads from RNA-Seq experiments were aligned to the GRCh37.p13 human genome reference assembly using SeqMan NGen 11.2.1 (DNAStar, Inc.). The assembly data were then imported into ArrayStar with QSeq (DNAStar, Inc.) to quantify the gene expression levels. The sequence counts were normalized to reads per kilobase per million (RPKM) after filtering out non-mRNA sequence features. The statistical significance of the difference between the expression levels of a gene under different conditions was assessed using a Student's t-test with the Benjamini-Hochberg multiple testing correction.
ATF6- and XBP1s-selective target genes were identified from transcriptional profiles of HEK293D^X cells following stress-independent activation of TMP-dependent DHFR-ATF6 and/or tetracycline inducible XBP1s, as previously described^4. PERK-selective target genes were identified from^8. Only ATF6-, XBP1s- or PERK-selective genes induced >1.5 fold in Tg-treated samples were used in this analysis. The log transformed fold-increase of these target genes in HEK293T-Rex cells treated with the respective ER proteostasis regulators were then normalized to the log transformed fold increase of these genes induced by Tg treatment. The plots shown in FIG. 5b-e were prepared as box and whisker plots using Kaleidograph. Differential activation of the ATF6, XBP1s, and PERK genesets was assessed by one-way ANOVA and significance of pairwise comparison confirmed by unpaired t-test. An analogous strategy was employed to prepare the heat map using transcriptional data from the MGE analysis.

[5] = tested on: endogenous secretory proteome of HepG2^ATF6 cells; assay: [35S] metabolic labeling, total secreted protein from HepG2^ATF6 cells; format: cell-based; conditions: 15 h pretreatment, 10 μM compound or 1 μM Tg, 4 h chase
Procedure: as §2

In the case of `Cc1ccc(O)c(NC(=O)CCc2c(Cl)cccc2Cl)c1` [RP27], the “ERSE reporter activity relative to 147” value [1] is reported as “decreases activity”.
For `Cc1ccc(O)c(NC(=O)CCc2ccccc2Cl)c1` [RP26], the “ERSE reporter activity relative to 147” value [1] was “increase”.
With `CCCCNNC(=O)c1ccc(Br)cc1` [Compound 5] the “% ERSE-FLuc activation” value [2] was 60.9 ± 6.0% and the “% XBP1-RLuc activation” value [3] was 9.1 ± 0.7%.
`Cc1ccc(O)c(NC(=O)CCc2ccccc2C)c1` [RP25] was tested, and the “ERSE reporter activity relative to 147” value [1] was “slightly decrease or do not change”.
In the case of `CCCc1cc(C(=O)Nc2cc(C)ccc2O)no1` [Compound 145], the “% ERSE-FLuc activation” value [2] is reported as 83.4 ± 6.3%, the “% XBP1-RLuc activation” value [3] is reported as 24.5 ± 4.7% and the “expression of the ATF6 target gene BiP in ALMC-2 cells” value [4] is reported as “induced”.
In the case of `COc1ccc(CCC(=O)Nc2cc(C)ccc2O)cc1` [RP14], the “ERSE reporter activity relative to 147” value [1] is reported as “slightly decrease or do not change”.
With `O=C1N/C(=C\c2ccc(O)cc2)C(=O)N1c1cccc(Cl)c1` [Compound 238] the “% ERSE-FLuc activation” value [2] was 68.2 ± 5.7%.
`COc1ccccc1CCC(=O)Nc1cc(C)ccc1O` [RP23] was tested, and the “ERSE reporter activity relative to 147” value [1] was “slightly decrease or do not change”.
`Cc1cc(C)c(OCC(=O)N/N=C/c2ccc(Cl)c(O)c2)c(Br)c1` [Compound 258] was tested, and the “% ERSE-FLuc activation” value [2] was 28.6 ± 6.1% and the “% XBP1-RLuc activation” value [3] was 32.6 ± 1.0%.
In the case of `Cc1ccc(O)c(NC(=O)CCc2ccccc2F)c1` [RP24], the “ERSE reporter activity relative to 147” value [1] is reported as “increase”.
`C/C=C(/C)C(=O)O[C@H]1C(C)=C2[C@H]([C@@H]1OC(=O)CCCCCCC)[C@@](C)(OC(C)=O)C[C@H](OC(=O)CCC)[C@@]1(O)[C@H]2OC(=O)[C@@]1(C)O` [Tg, thapsigargin, reference compound] was tested, and the “^FTTTR^WT secretion (in words)” value (^FTTTR^WT) was “reduced”, the “^FTTTR^A25T secretion (in words)” value (^FTTTR^A25T) was “reduced” and the “ERSE-FLuc activation on co-addition of the S1P inhibitor PF-429242” value ([1]; PF-429242 10 μM, 18 h, regulators 10 μM, Tg 500 nM) was “impeded”. The “BiP mRNA-Seq fold change (relative to Vh)” value (HEK293T-Rex cells; ATF6-selective gene) was 11.6 fold, the “GRP94 mRNA-Seq fold change (relative to Vh)” value (HEK293T-Rex cells; ATF6-selective gene) was 4.2 fold and the “SEL1L mRNA-Seq fold change (relative to Vh)” value (HEK293T-Rex cells; ATF6-selective gene) was 7.6 fold. The “DNAJB1 mRNA-Seq fold change (relative to Vh)” value (HEK293T-Rex cells; HSF1 target gene) was 0.5 fold, the “HSPA1A mRNA-Seq fold change (relative to Vh)” value (HEK293T-Rex cells; HSF1 target gene) was 0.3 fold and the “HSPA8 mRNA-Seq fold change (relative to Vh)” value (HEK293T-Rex cells; HSF1 target gene) was 0.3 fold. The “ASNS mRNA-Seq fold change (relative to Vh)” value (HEK293T-Rex cells; PERK target gene) was 4.2 fold, the “DDIT3 (CHOP) mRNA-Seq fold change (relative to Vh)” value (HEK293T-Rex cells; PERK target gene) was 13.2 fold and the “TrIB3 mRNA-Seq fold change (relative to Vh)” value (HEK293T-Rex cells; PERK target gene) was 8.2 fold. The “ERdj3 mRNA-Seq fold change (relative to Vh)” value (HEK293T-Rex cells; XBP1s- or ATF6-target gene) was 4.0 fold, the “HYOU1 mRNA-Seq fold change (relative to Vh)” value (HEK293T-Rex cells; XBP1s- or ATF6-target gene) was 6.1 fold and the “p58IPK mRNA-Seq fold change (relative to Vh)” value (HEK293T-Rex cells; XBP1s- or ATF6-target gene) was 3.9 fold. For the same molecule, the “DNAJC10 mRNA-Seq fold change (relative to Vh)” value (HEK293T-Rex cells; XBP1s-selective gene) was 2.1 fold, the “HSPA13 mRNA-Seq fold change (relative to Vh)” value (HEK293T-Rex cells; XBP1s-selective gene) was 4.2 fold and the “SEC24D mRNA-Seq fold change (relative to Vh)” value (HEK293T-Rex cells; XBP1s-selective gene) was 6.6 fold. For the same molecule, the “accumulation of [35S]-labeled protein in media (total secreted proteome)” value [5] was “significantly impaired”.
